Data taken from BigSolDB 2.1.

Details: in water

| Structure (SMILES) | solubility (mole fraction) (279.15 K) | solubility (mole fraction) (281.15 K) | solubility (mole fraction) (284.15 K) | solubility (mole fraction) (289.15 K) | solubility (mole fraction) (291.15 K) | solubility (mole fraction) (293.15 K) | solubility (mole fraction) (298.15 K) | solubility (mole fraction) (302.15 K) | solubility (mole fraction) (304.15 K) | solubility (mole fraction) (307.15 K) | solubility (mole fraction) (310.15 K) | solubility (mole fraction) (316.15 K) | solubility (mole fraction) (318.15 K) | solubility (mole fraction) (323.15 K) | solubility (mole fraction) (342.15 K) | solubility (mole fraction) (283.65 K) | solubility (mole fraction) (309.15 K) | solubility (mole fraction) (311.15 K) | solubility (mole fraction) (317.15 K) | solubility (mole fraction) (327.15 K) | other results |
| --- | --- | --- | --- | --- | --- | --- | --- | --- | --- | --- | --- | --- | --- | --- | --- | --- | --- | --- | --- | --- | --- |
| O=C(O)CCCCCC(=O)O | 0.00204 | 0.00211 | 0.00245 | 0.00417 | 0.00474 | 0.00568 | 0.00756 | 0.00906 | 0.00994 | 0.0113 | 0.0132 | 0.0364 | 0.0464 | 0.0776 | 0.328 |  |  |  |  |  | solubility (mole fraction) (297.15 K): 0.00738; solubility (mole fraction) (313.15 K): 0.0186; solubility (mole fraction) (320.65 K): 0.0584; solubility (mole fraction) (327.98 K): 0.14; solubility (mole fraction) (333.15 K): 0.189; solubility (mole fraction) (337.65 K): 0.261 |
| O=C(O)c1ccccc1C(=O)O |  |  |  |  |  |  | 0.000761 |  |  | 0.00107 |  |  | 0.00164 | 0.00223 |  | 0.000284 | 0.00119 | 0.00126 | 0.00164 | 0.00248 | solubility (mole fraction) (296.15 K): 0.000709; solubility (mole fraction) (302.65 K): 0.000935; solubility (mole fraction) (315.15 K): 0.00151; solubility (mole fraction) (319.15 K): 0.00181; solubility (mole fraction) (320.15 K): 0.00205; solubility (mole fraction) (334.15 K): 0.00323; solubility (mole fraction) (338.15 K): 0.004 |
| O=C(O)CCCC(=O)O | 0.0734 | 0.0784 | 0.085 | 0.118 | 0.129 | 0.139 | 0.16 | 0.189 | 0.2 | 0.216 | 0.236 | 0.281 | 0.289 | 0.327 | 0.537 |  |  |  | 0.287 |  | solubility (mole fraction) (286.15 K): 0.101; solubility (mole fraction) (312.15 K): 0.249; solubility (mole fraction) (320.55 K): 0.308; solubility (mole fraction) (327.65 K): 0.355; solubility (mole fraction) (329.15 K): 0.398; solubility (mole fraction) (332.15 K): 0.419; solubility (mole fraction) (334.25 K): 0.424; solubility (mole fraction) (336.15 K): 0.478 |
| O=C(O)c1ccccc1O |  |  |  |  |  |  | 0.000333 |  |  | 0.000441 |  |  | 0.000677 | 0.000742 |  |  |  |  | 0.000572 | 0.000934 | solubility (mole fraction) (283.15 K): 0.0002; solubility (mole fraction) (320.15 K): 0.000672; solubility (mole fraction) (324.15 K): 0.000785; solubility (mole fraction) (325.15 K): 0.000847; solubility (mole fraction) (328.15 K): 0.000964; solubility (mole fraction) (330.65 K): 0.00111; solubility (mole fraction) (334.65 K): 0.00131; solubility (mole fraction) (339.15 K): 0.00149 |
| O=C(O)c1ccco1 | 0.00411 |  | 0.00462 | 0.00483 |  |  | 0.00796 | 0.0099 |  | 0.0125 |  |  |  | 0.0513 |  | 0.00431 | 0.013 | 0.0154 | 0.0257 | 0.0722 | solubility (mole fraction) (280.15 K): 0.00414; solubility (mole fraction) (285.15 K): 0.00471; solubility (mole fraction) (294.15 K): 0.00633; solubility (mole fraction) (301.15 K): 0.00886; solubility (mole fraction) (315.15 K): 0.0231; solubility (mole fraction) (319.8 K): 0.031; solubility (mole fraction) (325.15 K): 0.0664; solubility (mole fraction) (327.65 K): 0.074; solubility (mole fraction) (328.15 K): 0.0907; solubility (mole fraction) (330.65 K): 0.128; solubility (mole fraction) (333.2 K): 0.144; solubility (mole fraction) (334.55 K): 0.144; solubility (mole fraction) (336.15 K): 0.199; solubility (mole fraction) (341.15 K): 0.262 |
